Experimental data published in the NIST ThermoML archive (doi:10.1021/acs.jced.9b00327).

Columns and labels:
[1] = mn = molality of the nth substance listed, in mol/kg; conditions: 100 kPa, Liquid; for speed of sound: Single path-length method; for mass density: Vibrating tube method
[2] = 100 kPa, Liquid, Single path-length method

Cn1c(=O)c2c(ncn2C)n(C)c1=O [caffeine] + O
[1]
Conditions	mass density, m1 = 0.005 [kg/m3]	mass density, m1 = 0.01 [kg/m3]	mass density, m1 = 0.02 [kg/m3]	mass density, m1 = 0.04 [kg/m3]	mass density, m1 = 0.06 [kg/m3]	speed of sound, m1 = 0.005 [m/s]	speed of sound, m1 = 0.01 [m/s]	speed of sound, m1 = 0.02 [m/s]	speed of sound, m1 = 0.04 [m/s]	speed of sound, m1 = 0.06 [m/s]
293.15 K	998.731	998.986	999.492	1000.68	1001.78	1483	1483.5	1484	1485.1	1486.2
298.15 K	997.275	997.549	998.082	999.091	1000.02	1497.2	1497.6	1498	1499	1500.1
303.15 K	996.169	996.422	996.912	997.986	999.147	1509.5	1509.8	1510.3	1511.2	1512.1
308.15 K	994.279	994.556	995.092	996.095	997.015	1520.1	1520.4	1520.8	1521.6	1522.4
313.15 K	992.732	992.974	993.452	994.51	995.632	1529.1	1529.4	1529.8	1530.4	1531.2
318.15 K	990.833	990.981	991.327	992.156	992.958	1536.7	1537	1537.2	1537.8	1538.5

O [water]
[2]
Conditions	speed of sound [m/s]
313.15 K	1528.9
318.15 K	1536.5
